Columns and labels:
[1] = target: T1, α2 subtype containing GABA-A receptors (Homo sapiens, UniProt P18507+P47869); assay: Two-electrode voltage clamp electrophysiology in Xenopus oocytes, potentiation of GABA EC20 response, α2; format: cell-based; conditions: 100 nM compound; for activation at 0.1 µM: read-out: Percentage of potentiation alpha2
T1 construct: expressed in transfected cells; host or cells: Xenopus laevis oocytes, cRNA injected
Procedure, shortened: (§1)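 Oocyte TEVC at −80 mV, ND96 buffer pH 7.5; human αβ3γ2L receptors; enhancement of 60 μM GABA (EC20) current by 100 nM test compound.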

[2] = tested on: central benzodiazepine receptors; assay: Central benzodiazepine receptor binding (test of Speth et al.); conditions: 1000 nM of the compound
Procedure, shortened: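 Values are percent inhibition of central benzodiazepine receptor binding at 1000 nM compound (initial single-point screen at 1.0E-09, 1.0E-07 and 1.0E-05 M). Speth et al. binding test; nonspecific binding defined with excess unlabelled ligand and subtracted from total.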

[3] = target: T2, α1 subtype containing GABA-A receptors (Homo sapiens, UniProt P14867+P18507); assay: Two-electrode voltage clamp electrophysiology in Xenopus oocytes, potentiation of GABA EC20 response, α1; format: cell-based; conditions: 100 nM compound; for activation at 0.1 µM: read-out: Percentage of potentiation alpha1
T2 construct: expressed in transfected cells; host or cells: Xenopus laevis oocytes, cRNA injected
Procedure, shortened: as §1

T2 sequence (P14867 28-456): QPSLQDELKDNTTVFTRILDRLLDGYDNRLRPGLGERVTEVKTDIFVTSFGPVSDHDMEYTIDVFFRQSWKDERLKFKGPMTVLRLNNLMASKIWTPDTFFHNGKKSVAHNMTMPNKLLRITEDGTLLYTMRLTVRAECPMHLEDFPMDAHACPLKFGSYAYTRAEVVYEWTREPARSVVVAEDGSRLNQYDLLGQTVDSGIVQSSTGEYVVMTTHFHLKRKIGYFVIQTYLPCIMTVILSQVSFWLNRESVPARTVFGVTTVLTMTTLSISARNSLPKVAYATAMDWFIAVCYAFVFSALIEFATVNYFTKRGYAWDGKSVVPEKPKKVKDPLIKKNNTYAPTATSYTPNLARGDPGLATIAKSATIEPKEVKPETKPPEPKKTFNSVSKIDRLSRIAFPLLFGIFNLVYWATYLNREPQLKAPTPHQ
T2 sequence (P28472 26-473 partner): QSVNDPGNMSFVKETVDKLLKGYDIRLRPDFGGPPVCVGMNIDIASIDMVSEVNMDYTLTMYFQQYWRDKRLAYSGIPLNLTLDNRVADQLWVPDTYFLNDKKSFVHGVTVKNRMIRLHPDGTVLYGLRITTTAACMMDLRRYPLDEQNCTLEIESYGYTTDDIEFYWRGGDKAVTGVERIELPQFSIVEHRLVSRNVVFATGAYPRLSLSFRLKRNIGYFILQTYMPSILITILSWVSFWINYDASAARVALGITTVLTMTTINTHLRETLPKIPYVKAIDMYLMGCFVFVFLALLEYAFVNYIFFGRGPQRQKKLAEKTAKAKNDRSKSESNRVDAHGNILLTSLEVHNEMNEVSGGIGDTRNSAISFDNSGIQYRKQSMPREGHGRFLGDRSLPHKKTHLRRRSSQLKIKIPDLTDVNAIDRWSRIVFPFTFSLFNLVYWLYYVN
T2 sequence (P18507 40-475): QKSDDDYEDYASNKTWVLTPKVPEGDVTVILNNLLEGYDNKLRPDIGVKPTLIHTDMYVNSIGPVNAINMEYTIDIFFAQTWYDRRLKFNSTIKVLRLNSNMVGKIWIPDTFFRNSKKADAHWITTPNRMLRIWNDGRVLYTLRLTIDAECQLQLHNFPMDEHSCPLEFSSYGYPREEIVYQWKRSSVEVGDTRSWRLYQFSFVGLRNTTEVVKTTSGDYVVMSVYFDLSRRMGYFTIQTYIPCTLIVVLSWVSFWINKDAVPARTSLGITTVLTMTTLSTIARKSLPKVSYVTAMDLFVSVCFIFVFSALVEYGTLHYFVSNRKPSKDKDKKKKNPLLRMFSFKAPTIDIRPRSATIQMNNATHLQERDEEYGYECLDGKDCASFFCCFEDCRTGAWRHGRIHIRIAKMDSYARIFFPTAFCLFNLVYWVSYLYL
T1 sequence (P47869 29-451): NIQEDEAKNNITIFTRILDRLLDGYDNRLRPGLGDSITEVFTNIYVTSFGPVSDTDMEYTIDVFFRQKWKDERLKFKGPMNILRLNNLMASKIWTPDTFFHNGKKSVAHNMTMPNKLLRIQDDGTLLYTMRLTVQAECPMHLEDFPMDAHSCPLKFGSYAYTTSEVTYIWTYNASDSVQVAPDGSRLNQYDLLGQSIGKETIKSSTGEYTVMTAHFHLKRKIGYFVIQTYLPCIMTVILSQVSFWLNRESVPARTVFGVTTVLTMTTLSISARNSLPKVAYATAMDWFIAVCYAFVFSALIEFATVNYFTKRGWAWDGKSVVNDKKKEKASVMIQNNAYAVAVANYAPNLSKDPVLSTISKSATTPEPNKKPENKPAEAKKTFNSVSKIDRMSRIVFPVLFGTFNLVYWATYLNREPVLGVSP
T1 sequence (P28472 26-473 partner): as the sequence (P28472 26-473 partner) above
T1 sequence (P18507 40-475): as the sequence (P18507 40-475) above

Cc1ccc(-c2nc3ccc(C)cn3c2CNc2nccs2)cc1 [Compound 150, N-((6-methyl-2-p-tolylH-imidazo[1,2-a]pyridin-3-yl)methyl)thiazole-2-amine]
Percentage of potentiation alpha2 [1]: + (percentage of potentiation is greater than or equal to 10% but less than 50% in the presence of 100 nM of the compound) | % Inhibition at 1000 nM for CBZD [2]: ++ (percentage of inhibition of central BZD site binding is greater than 80% in the presence of 1000 nM of the compound) | Percentage of potentiation alpha1 [3]: 0 (percentage of potentiation is between about 10% to about −10%)

CN(C)CCNC1=CC(=O)N(Cc2c(-c3ccc(Cl)cc3)nc3ccccn23)C1 [Compound 237, 1-((2-(4-chlorophenyl)imidazo[1,2-a]pyridin-3-yl)methyl)-4-(2-(dimethylamino)ethylamino)-1H-pyrrol-2(5H)-one]
activation at 0.1 µM [1]: 10 to 50% | % Inhibition at 1000 nM for CBZD [2]: ++ (percentage of inhibition of central BZD site binding is greater than 80% in the presence of 1000 nM of the compound) | activation at 0.1 µM [3]: -10 to 10%

CN(C)CCNc1cc(Cc2c(-c3ccc(Cl)cc3)nc3ccccn23)ncn1 [Compound 243, N^1-(6-((2-(4-chlorophenyl)imidazo[1,2-a]pyridin-3-yl)methyl)pyrimidin-4-yl)-N^2,N^2-dimethylethane-1,2-diamine]
activation at 0.1 µM [1]: 10 to 50% | % Inhibition at 1000 nM for CBZD [2]: ++ (percentage of inhibition of central BZD site binding is greater than 80% in the presence of 1000 nM of the compound) | activation at 0.1 µM [3]: 10 to 50%

CN1CC[C@H](Oc2ccnc(NCc3c(-c4ccc(F)cc4)nc4ccc(Cl)cn34)n2)C1 [Compound 184, (S)—N-((6-chloro-2-(4-fluorophenyl)imidazo[1,2-a]pyridin-3-yl)methyl)-4-(1-methylpyrrolidin-3-yloxy)pyrimidin-2-amine]
activation at 0.1 µM [1]: 10 to 50% | % Inhibition at 1000 nM for CBZD [2]: ++ (percentage of inhibition of central BZD site binding is greater than 80% in the presence of 1000 nM of the compound) | activation at 0.1 µM [3]: 10 to 50%

Fc1ccc(-c2nc3ccc(Cl)cn3c2Cn2cncn2)cc1 [Compound 62, 3-((1H-1,2,4-triazol-1-yl)methyl)-6-chloro-2-(4-fluorophenyl)H-imidazo[1,2-a]pyridine]
Percentage of potentiation alpha2 [1]: 0 (percentage of potentiation is between about 10% to about −10%) | % Inhibition at 1000 nM for CBZD [2]: ++ (percentage of inhibition of central BZD site binding is greater than 80% in the presence of 1000 nM of the compound) | Percentage of potentiation alpha1 [3]: + (percentage of potentiation is greater than or equal to 10% but less than 50% in the presence of 100 nM of the compound)

Fc1ccc(-c2nc3ccc(Cl)cn3c2CNc2nccc(C3CCCN3)n2)cc1 (stereo not drawn) [Compound 195]
activation at 0.1 µM [1]: ≥ 50% | % Inhibition at 1000 nM for CBZD [2]: ++ (percentage of inhibition of central BZD site binding is greater than 80% in the presence of 1000 nM of the compound) | activation at 0.1 µM [3]: ≥ 50%

OC1CCN(c2cncc(Cc3c(-c4ccc(Cl)cc4)nc4ccccn34)n2)C1 (stereo not drawn) [Compound 191, 1-(6-((2-(4-chlorophenyl)imidazo[1,2-a]pyridin-3-yl)methyl)pyrazin-2-yl)pyrrolidin-3-ol]
activation at 0.1 µM [1]: 10 to 50% | % Inhibition at 1000 nM for CBZD [2]: ++ (percentage of inhibition of central BZD site binding is greater than 80% in the presence of 1000 nM of the compound) | activation at 0.1 µM [3]: 10 to 50%

Cn1ncnc1Cc1c(-c2ccc(Cl)cc2)nc2ccccn12 [Compound 207, 2-(4-Chlorophenyl)-3-((1-methyl-1H-1,2,4-triazol-5-yl)methyl)imidazo[1,2-a]pyridine]
activation at 0.1 µM [1]: 10 to 50% | % Inhibition at 1000 nM for CBZD [2]: ++ (percentage of inhibition of central BZD site binding is greater than 80% in the presence of 1000 nM of the compound) | activation at 0.1 µM [3]: 10 to 50%

COc1ccc(NCc2c(-c3ccccc3)nc3ccc(Cl)cn23)nn1 [Compound 165, N-((6-chloro-2-phenylimidazo[1,2-a]pyridin-3-yl)methyl)-6-methoxypyridazin-3-amine]
activation at 0.1 µM [1]: 10 to 50% | % Inhibition at 1000 nM for CBZD [2]: ++ (percentage of inhibition of central BZD site binding is greater than 80% in the presence of 1000 nM of the compound) | activation at 0.1 µM [3]: 10 to 50%

CCOC(=O)c1cc(C)n(Cc2c(-c3ccc(Cl)cc3)nc3ccccn23)n1 [Compound 29, ethyl 1-((2-(4-chlorophenyl)imidazo[1,2-a]pyridin-3-yl)methyl)-5-methyl-1H-pyrazole-3-carboxylate]
activation at 0.1 µM [1]: ≥ 50% | % Inhibition at 1000 nM for CBZD [2]: ++ (percentage of inhibition of central BZD site binding is greater than 80% in the presence of 1000 nM of the compound) | activation at 0.1 µM [3]: ≥ 50%

Cc1ccc(-c2nc3ccc(C)cn3c2CSc2nnc(C)s2)cc1 [Compound 179, 6-Methyl-3-(5-methyl-[1,3,4]thiadiazol-2-ylsulfanylmethyl)-2-p-tolyl-imidazo[1,2-a]pyridine]
activation at 0.1 µM [1]: -10 to 10% | % Inhibition at 1000 nM for CBZD [2]: ++ (percentage of inhibition of central BZD site binding is greater than 80% in the presence of 1000 nM of the compound) | activation at 0.1 µM [3]: -10 to 10%

O=c1nc(-n2cncn2)ccn1Cc1c(-c2ccc(Cl)cc2)nc2ccccn12 [Compound 138, 1-((2-(4-chlorophenyl)imidazo[1,2-a]pyridin-3-yl)methyl)-4-(1H-1,2,4-triazol-1-yl)pyrimidin-2(1H)-one]
activation at 0.1 µM [1]: 10 to 50% | % Inhibition at 1000 nM for CBZD [2]: ++ (percentage of inhibition of central BZD site binding is greater than 80% in the presence of 1000 nM of the compound) | activation at 0.1 µM [3]: 10 to 50%

CC1(O)CCN(c2ccnc(NCc3c(-c4ccccc4)nc4ccc(Cl)cn34)n2)CC1 [Compound 187, 1-(2-((6-chloro-2-phenylimidazo[1,2-a]pyridin-3-yl)methylamino)pyrimidin-4-yl)-4-methylpiperidin-4-ol]
activation at 0.1 µM [1]: -10 to 10% | % Inhibition at 1000 nM for CBZD [2]: ++ (percentage of inhibition of central BZD site binding is greater than 80% in the presence of 1000 nM of the compound) | activation at 0.1 µM [3]: ≤ -10%

COC(=O)c1ncnn1Cc1c(-c2ccccc2)nc2ccc(Cl)cn12 [Compound 44, 2-(6-Chloro-2-phenyl-imidazo[1,2-a]pyridin-3-ylmethyl)-2H-[1,2,4]triazole-3-carboxylic acid methyl ester]
activation at 0.1 µM [1]: -10 to 10% | % Inhibition at 1000 nM for CBZD [2]: ++ (percentage of inhibition of central BZD site binding is greater than 80% in the presence of 1000 nM of the compound) | activation at 0.1 µM [3]: -10 to 10%

O=c1c2ccccc2[nH]n1Cc1c(-c2ccc(Cl)cc2)nc2ccccn12 [Compound 118, 2-((2-(4-chlorophenyl)imidazo[1,2-a]pyridin-3-yl)methyl)-1H-indazol-3(2H)-one]
activation at 0.1 µM [1]: ≥ 50% | % Inhibition at 1000 nM for CBZD [2]: ++ (percentage of inhibition of central BZD site binding is greater than 80% in the presence of 1000 nM of the compound) | activation at 0.1 µM [3]: 10 to 50%

Source: patent US8497278B2, “Imidazo[1,2-a]pyridine compounds” (priority 2008, dated 2013)
